# Data published in patent US20120183605A1 (priority 2009, published 2012).
# What was measured:
# [1] = Steady-state pharmacokinetics in healthy young and elderly subjects
# [2] = system: ventricular repolarization, as measured by prolongation of the QT interval; assay: QT interval prolongation study in healthy young and elderly subjects
# [3] = steady state (Days 7-9), ≧18 to ≦45 yrs (N = 16)
"AUC(ss), least squares mean [1, 3] [ng·h/mL]","Tmax(ss), least squares mean [1, 3] [s]",Compound,QTcI difference between the elderly and young between quinine and placebo (baseline adjusted) ([2]; 30 minutes post dose) [ms],QTcI difference between the elderly and young between quinine and placebo (baseline adjusted) ([2]; 48 hours post dose) [ms],increase of QTcI over placebo ([2]; for the first 6 hours after dosing),subjects with a QTcI greater than 500 msec ([2]; in vivo),subjects with a maximum QTcI change from baseline of greater than 60 msec ([2]; in vivo),maximal increase of QTcI over placebo ([2]; one hour post dose) [ms],upper bound of the one sided confidence interval of maximal QTcI increase over placebo ([2]; one hour post dose) [ms],"QTcI difference between the elderly and young, mean increase ([2]; over 48 hours) [ms]",effect of age on QTc interval prolongation ([2]; patients ≧65 years v. younger patients),increase of QTcI over placebo ([2]; up to 14 hours after dosing),"increase in rate and extent of absorption, elderly compared to younger subjects ([1]; after formulation 3A, steady state)","T1/2, least squares mean ([1]; steady state (Days 7-9), ≧65 to ≦80 yrs (N = 15)) [h]"
46100,7780,"C=C[C@H]1C[N@@]2CC[C@H]1C[C@H]2[C@H](O)c1ccnc2ccc(OC)cc12 [Quinine, cinchonan-9-ol, 6′-methoxy-, (8α,9R)-]",10.06,-1.92,above 20 msec,No subject,No subject,28.3,31.83,3.92,did not indicate that patients ≧65 years of age have significantly greater risk of QTc prolongation than younger patients,above 10 msecs,,
,,"C=C[C@@]1(O)CN2CC[C@H]1C[C@H]2[C@H](O)c1ccnc2ccc(OC)cc12 [3-OH Quinine, 3-hydroxyquinine]",,,,,,,,,,,approximately 25%,18.7
